A word on the IC50: it is the concentration that inhibits the measured activity by half. A higher IC50 goes with a need for much substance.

For one data set, the system named is MKN-45. In words: Flow cytometry cell cycle analysis. The data set is classed as cell-based, Human. The note with it: dose titration, 24 hours. Here is the method: (§1) Bromodeoxyuridine (BrdU) labeling reagent was added to cells for the final two hours of compound treatment. Cells were then washed with PBS and treated with trypsin to release from the bottom of the plate. Cells were washed and fixed in 90% methanol at −20° C. overnight. Cells were then washed and treated with 2N HCl and 0.5% triton X-100 to denature the DNA, followed by a wash and staining with anti-BrdU Alexa-647 and anti-Cleaved-Caspase-3 FITC antibodies. Finally cells were subjected to RNase treatment and propidium iodide staining. Cells were then analyzed on an LSRII flow cytometer.
(§2) The anti-BrdU Alexa-647 antibody was purchased from Invitrogen (Carlsbad, Calif.). The anti-cleaved-caspase-3 FITC antibody was purchased from BD Pharmingen (San Jose, Calif.).
(§3) Flow cytometry cell cycle analysis of MET amplified gastric cancer cell line MKN-45 is represented in FIG. 6. […] BrdU labeling was performed during the final 2 hours of compound treatment. Cells were then harvested, fixed, permeabilized and stained with BrdU and caspase-3 antibodies, followed by treatment with RNase and propidium iodide. Cells were then analyzed by flow cytometry to document effects on the cell cycle. […] Flow cytometry cell cycle analysis of MET amplified gastric cancer cell line SNU620 are represented in FIG. 6B. SNU 620 cells were treated as described above. […] Subsequent lysates were analyzed by SDS-PAGE and immunoblot using antibodies detecting cleaved PARP, cleaved caspase-3 and β-actin.

The next data set deals with SNU620. In words: Flow cytometry cell cycle analysis. Type of data set: cell-based, Human. The settings on record: SNU 620; dose titration, 24 hours. Here is the method: as §1, §2, §3
For orientation: A flow cytometer gives signals particle by particle.

Another data set has as its system human HCC cell lines. In words: HCC cell proliferation assay (CellTiter-Glo, 72 h). The data set is classed as cell-based. Here is the method: All human HCC cell lines were purchased from the American Type Culture Collection (ATCC), Japanese Collection of Research Bioresources (JCRB), Korean Cell line Bank (KCLB), Shanghai Institutes of Biological Sciences (SIBS), Zhongshan Hospital Fudan University (ZHFU), and routinely cultured in 96-well plates in ATCC's recommended growth media in the temperature of 37° C., 5% CO2 and 95% humidity. […] Luminescence was measured with a PerkinElmer EnVision® plate reader. Data will not be normalized to a control compound, rather POC (percent of control). POC=(compound treated signal/DMSO treated signal)*100. POC values were processed with the software of GraphPad Prism version 5 to calculate the absolute IC50. Time 0 (T0) reported as broken line on dose response curves were shown in the curve fitting as the percent of the net T3 DMSO control.
The fluorescence in situ hybridization (FISH) analysis and immunohistochemistry (IHC) staining were used to confirm c-MET amplification and high protein expression. The six sensitive and non-sensitive cell lines were selected, including MHCC97H, HCCLM3, JHH-4, JHH-5, SNU-398 and Hep3B. MHCC97H and HCCLM3 cell lines also had high levels of total MET with strong membrane staining (IHC 3+) and MET gene amplification (MET/CEP7>2.0), which were identified as Met-positive HCC. […]

In another data set the test system is SNU-5. In words: 72 hour cancer cell line viability assay (CellTiter-Glo). The data set is classed as cell-based, Human. How it is done:
(§4) Human cancer cell lines were purchased from ATCC, JCRB, Sigma Aldrich or DSMZ. All cell lines were propagated in growth media per the suppliers' recommendation and maintained in 5% CO2 and 37° C.
(§5) Cancer cell line viability assays were carried out using the CellTiter-Glo Luminescent Cell Viability Assay from Promega (Madison, Wis.). Optimal cell seeding densities were determined using time lapse imaging to maximize signal window and ensure cells were not contact growth inhibited at the 72 hour time point. Cells were seeded in 96 well plates in complete growth media and allowed to adhere to the bottom of the plate by incubation at 37° C. and 5% CO2 overnight. […] Plates were incubated at 37° C. and 5% CO2 for 72 hours. Treated plates were then allowed to equilibrate to room temperature along with, CellTiter-Glo substrate and buffer solution prior to use in the viability assay. CellTiter-Glo substrate vials were reconstituted in 10 mL of buffer solution and added to assay plates in 100 μL/well volumes. Plates were shaken for 2 minutes at 700 rotations per minute with an orbit diameter of 3 mm followed by room temperature incubation for 10 minutes. Plates were then read using an Envision plate reader on luminescent setting.
(§6) To calculate growth inhibition effects (0-200% scale), time zero vehicle treated wells (V0), were read at the time of compound addition for each cell line.
(§7) Threshold for high vs low MET copy number was set at aCGH log 2 ratio of 2.5. Focal nature of MET copy number increase was defined qualitatively using tiled aCGH results for chromosome 7.
(§8) Percent growth inhibition is reported on a 0-200% scale where 0% is equivalent to no effect (time 72 hour control), 100% is equivalent to stasis (time 0 hour control) and 200% is equivalent to complete cell death.

The next data set relates to SNU-620. The data set is described as above. The data set is classed as cell-based, Human. How it is done: as §4, §5, §6, §7, §8
Data set [1] in a line: Phase 1 Study 20101132 preliminary PK analysis. The note with it: human, in vivo. Here is the method:
Safety is assessed according to Common Terminology Criteria for Adverse Events (CTCAE) v4.0 criteria and the DLT (dose limiting toxicity) window is 28 days. Dose escalation is proceeding with a modified 3+3+3 design, which defines the MTD (maximum tolerated dose) to have been exceeded when ≥3 subjects in a cohort experience a DLT.
Dose escalation consists of up to 8 cohorts of 3 to 9 evaluable subjects each. Initially, up to 4 subjects may enroll into a cohort. […] At least 6 subjects will be treated at the MTD. An expansion cohort of up to 20 subjects at the MTD (determined in the dose escalation portion) will be considered to obtain further safety, PK, and efficacy data.

Where two headings read alike, the source gives them in different places.

In the case of `COCCOc1cnc2ccn([C@H](C)c3nnc4c(F)cc(-c5cnn(C)c5)cn34)c(=O)c2c1` [Compound M, 6-{(1R)-1-[8-fluoro-6-(1-methyl-1H-pyrazol-4-yl)[1,2,4]triazolo[4,3-a]pyridin-3-yl]ethyl}-3-(2-methoxyethoxy)-1,6-naphthyridin-5(6H)-one], the “S-phase positive cells (BrdU+)” value in the data set on MKN-45 is reported as “corresponding reduction”. For the same compound, in the data set on MKN-45, the “percentage of cells in the G1 phase of the cell cycle” value is recorded as “dose dependent increase”. In addition, the “subG1/Caspase-3+ cells (cell killing)” value with SNU620 is recorded as “robust induction”. Besides, the “drug sensitivity” value in the data set on human HCC cell lines (HCC cell lines with total c-MET IHC 2+, 1+ or 0) is on record as “did not show dramatic drug sensitivity”. Also, the “response to Compound M” value in the data set with human HCC cell lines (Met-positive HCC (MHCC97H, HCCLM3: IHC 3+, MET/CEP7>2.0)) is “significant and favorable response”. The IC50 with SNU-5 (Homo sapiens, SNU-5, 72 h) is 3 nM; with SNU-620 (Homo sapiens, SNU620, 72 h), 14 nM. Moreover, the viability response type result is on record as “evidence of cell death” with SNU-5 (SNU-5, 72 hour, 0-200% growth inhibition scale) and “evidence of cell death” with SNU-620 (SNU-620, 72 hour, 0-200% growth inhibition scale). Moreover, the half-life was 4.6 to 7.4 h in data set [1] (oral, 43 subjects, once daily doses of 25 to 400 mg, tablet formulation, read-out: mean estimates of T1/2,z) and 4.6 to 6.9 h in data set [1] (24 subjects, daily oral doses of up to 200 mg, as of 20 Aug. 2012, read-out: Mean estimates of elimination half-life). Also, the concentration at 28 days in data set [1] (oral, cohort 3 (100 mg) after 28 days of dosing, read-out: human mean trough concentration) worked out at 131 ng/mL.

These data come from patent US10328062B2, “Biomarkers and use of MET inhibitor for treatment of cancer” (AMGEN, INC., priority 2014, dated 2019).
